Results as given in publication PMC5575474, “Structure‐Enabled Discovery of a Stapled Peptide Inhibitor to Target the Oncogenic Transcriptional Repressor TLE1” (Chemistry (Weinheim an Der Bergstrasse, Germany), 2017).
Where two headings read alike, the source gives them in different places. Blank lines part the entries; values can stand above or below the compound they belong to. No end group written: not given here.

Columns and labels:
[1] = target: T1, human TLE1 443-770 (TLE1 WD40 domain) (Homo sapiens, UniProt Q04724); assay: Thermal shift assay (TSA, ΔTm); assay type: binding; settings: 6 μM human TLE1 443-770, 25 mM Tris pH7.5, 125 mM NaCl, 1 mM DTT, 0.0002% Tween20, 3x SYPRO Orange, 10 °C to 95 °C, 0.5 °/min, mean of triplicate
T1 construct: the TLE1 WD40 domain (TLE1 residues 443–770); His6 (N, cleaved yes); made in house; host or cells: Sf9 insect cells (baculovirus, pFastBacHTb)
T1 sequence (Q04724 443-770): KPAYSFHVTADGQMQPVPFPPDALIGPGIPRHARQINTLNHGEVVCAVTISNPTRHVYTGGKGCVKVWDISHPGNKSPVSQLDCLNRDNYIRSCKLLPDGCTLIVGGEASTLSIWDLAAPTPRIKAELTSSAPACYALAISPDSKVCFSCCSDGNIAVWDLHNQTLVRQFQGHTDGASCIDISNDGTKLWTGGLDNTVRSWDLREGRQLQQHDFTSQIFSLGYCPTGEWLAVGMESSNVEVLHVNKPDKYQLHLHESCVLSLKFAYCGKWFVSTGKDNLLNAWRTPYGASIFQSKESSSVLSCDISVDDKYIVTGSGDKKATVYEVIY
Experimental: (§1) We next investigated the binding of this macrocycle, as well as acyclic MWRPW and FWRPW peptides, to TLE1. We used two orthogonal binding assays, the thermal shift assay10 and isothermal titration calorimetry (ITC),11 to test binding of 18 and the linear peptides to the TLE1 WD40 domain (TLE1 residues 443–770).
Figure 2 ΔT m plot of peptide–hTLE1 443–770 interactions in thermal shift experiments. All measurements were carried out in triplicate and the points are reported as mean+standard deviation (SD). […]
(§2) Cloning, Expression and Purification of humanTLE1 443- 770.
(§3) The construct encoding the sequence for human TLE1 443- 770 was generated ac c or ding Laurence Pearl’s laboratory procedure. Brief ly, the C-terminal region of human TLE1 (GenBank accession number M99435) encoding amino acids 443– 770 was PCR amplif ied and cloned into pFastBacHTb (GIBCO) in-frame with the N-terminal His6 tag sequence.
(§4) Starting from this construct we generated recombinant baculovirus using the Bac-to-Bac® Baculovirus Expression System (Thermo Fisher Scientif ic). For protein production, Sf9 insect cells were grown in sf -900 II SFM media (Thermo Fisher Scientific) to a cell density of around 2 × 10^6 cells per milliliter and inf ected with 20 μL of virus per 107cells. Inf ected cell cultures were harvested 3 days post-inf ection.
(§5) Cell pellets were resuspended in 6 volumes of lysis buffer (50 mM Tris pH 7.5, 500 mM NaCl, 1 mM MgCl) containing 1× complete EDTA-free protease inhibitors and 25 U/mL benzonase nuclease. The resuspended cells were lysed by sonication. Following […]
(§6) centrifugation, the supernatant was purified over 2x HiTrap talon crude columns (Cobalt - IMAC, GE). Columns were washed with 10m M Imidazole and then the protein was eluted in […]
(§7) The Talon eluate was incubated overnight at 4 °C with TEV protease to cleave the 6xHis tag and then re- loaded on talon column: the unbound wash contains the cleaved hTLE1 443- […]
(§8) The protein was subsequently purif ied over a Superdex 75 16/60 column that was equilibrated in 50 mM Hepes pH 7.5 + 250 mM naCl + 1 mM TCEP.
(§9) Selected f ractions were pooled, concentrated to 8 mg/mL and stored at - 80 °C. The protein was stable in these conditions f or up to three months.
(§10) Protein concentration was measured using an ND-1000 UV spectrophotometer (Nanodrop Technologies Inc., DE., USA). […]
(§11) 1-2 days at 20 ◦C. Some crystals were transf erred to hanging drop (vapour diffusion) plates with the wells containing precipitant solution (PEG 8000 (22%), 100mM Na cacodylate, 100 mM Ca(OAc)2) and the drops containing the same precipitant solution supplemented with 1.0 or 2.5 mM peptide and a resultant final DMSO concentration of 1.0% or 2.5%, respectively. These crystals were soaked for around 5 h at 20 °C. Apo or peptide- s oak ed crystals were harvested, briefly transferred to cryprotectant (either paratone- N or a buffer containing ethylene glycol (40%), PEG 8000 (50%), 100 mM sodium cacodylate, 100 m M Ca(OAc)2) and f lash frozen in liquid nitrogen.
X-Ray data we r e collected at the Diamond Light Source, Oxford, UK on beamline I04.
Crystals belonged to the space group P2 1 and diffracted to between 1.6 and 2.9 Å. Dat a we r e integrated and merged using MOSFLM[4a,b] and AI MLESS.[4c] The structures were solved by molecular replacement using PHASER, [5] with either 2CE9 or our refined apo structure as the molecular replacement model with ligands and water removed. T he structures were manually rebuilt in COOT [6] and refined with BUSTER[7] in iterative cycles.
Ligand restraints f or the constrained peptide were generated with Grade[8] and Mogul.[9] T he quality of the structures was assessed with MOLPROBITY.[10]
Linear, unmodified peptides FW RPW and MWRPW were purchased from Cambridge Peptides as lyophilized powder. The peptides were then reconstituted in 1:1 mixture of DMSO and H2O as 10 mM stocks and stored at -80 °C. […]

[2] = target: T1, human TLE1 443-770 (TLE1 WD40 domain); assay: Isothermal titration calorimetry (ITC), peptide–TLE1 binding; settings: one-site independent binding model; TLE1 30 μM, peptide 350 μM; 25 °C, 50 mM Hepes pH7.5, 250 mM NaCl; mean ± SD, n = 2 (Table S1)
TLE1 WDR domain = settings: cited from earlier work
From the text: As discussed in more detail below, the bioactive conformation of this peptide is characterised by a compactly folded core formed by the central three amino acids. This compact core engages in extensive interactions with the WDR1 domain and positions key amino acid side chains such that they can form add ...

[3] = target: T1, human TLE1 443-770 (TLE1 WD40 domain); assay: Isothermal titration calorimetry (ITC), peptide–TLE1 binding; settings: for Kd / affinity relative to unconstrained (acyclic) peptide: cyclic vs acyclic FWRPW
From the text: as §1
This was initially more pronounced for FWRPW and 18, but also recognisable for the MWRPW peptide (see Figure S1 in the Supporting Information). We repeated the MWRPW titration at slightly higher protein and peptide concentrations to achieve a higher enthalpy signal, and therefore, better resolution of the titration event. Under these conditions, we also observed a clear biphasic curve (Figure 3). The biphasic curves are indicative of two binding events and we calculated the thermodynamic data for both (Table 2).
Figure 3 Top: ITC measurements of peptide–TLE1 binding interactions. Data fitting to a two‐site independent binding model are shown; integrated heats are shown in the inset. Bottom: Histograms showing ΔG, ΔH, and −TΔS. The thermodynamic values are also presented in Table 1. a) MWRPW–TLE1 binding, n=1. Experiment performed with TLE1 (40 μM) and MWRPW peptide (420 μM). b) FWRPW–TLE1 binding, n=2. Experiment performed with TLE1 (30 μM), FWRPW peptide (240 μM), and then repeated with TLE1 (24 μM), FWRPW peptide (180 μM). Histograms represent averaged values; error bars denote SD. c) 18–TLE1 binding, n=2. Experiment performed with TLE1 (30 μM), 18 (200 μM) and then repeated with TLE1 (30 μM), 18 (180 μM). Histograms represent averaged values; error bars denote SD. […]
as §2, §3, §4, §5, §6, §7, §8, §9, §10
as §11, with “containing ethylene glycol (40%), PEG 8000 (50%), 100 mM sodium cacodylate, 100 m M Ca(OAc)2) and f lash frozen in liquid nitrogen.” left out

[4] = first binding event, two-site independent binding model, 25 °C, pH7.5, MWRPW n=1, FWRPW and 18 n=2, mean ± SD
[5] = second binding event, two-site independent binding model, 25 °C, pH7.5, MWRPW n=1, FWRPW and 18 n=2, mean ± SD

ΔTm ([1]; peptide 100 μM): 6.3 °C
ΔTm ([1]; peptide 200 μM): 6.9 °C
Kd [2]: 704 ± 14 nM
Compound: MWRPW [MWRPW, reference compound]

Compound: SMWRPW [acyclic design template (pdb code 2CE9)]
Kd (TLE1 WDR domain): 1000 nM

ΔTm ([1]; peptide 100 μM): 9.4 °C
ΔTm ([1]; peptide 200 μM): 10.1 °C
N1 ([3]; first binding event, two-site independent binding model, 25 °C, 50 mM Hepes pH7.5, 250 mM NaCl, 1 mM TCEP, 0.05% Tween 20, MWRPW n=1 (TLE1 40 μM, peptide 420 μM), FWRPW n=2 (TLE1 30/24 μM, peptide 240/180 μM), 18 n=2 (TLE1 30 μM, peptide 200/180 μM)): 0.18±0.002
ΔH1 [3, 4]: -20.5 ± 3.7 kcal/mol
−TΔS1 [3, 4]: 9.2 ± 3.8 kcal/mol
fold more potent binding than MWRPW ([3]; second binding event (Kd2)): ~10 fold
N2 ([3]; second binding event, two-site independent binding model, 25 °C, 50 mM Hepes pH7.5, 250 mM NaCl, 1 mM TCEP, 0.05% Tween 20, MWRPW n=1, FWRPW and 18 n=2): 0.7±0.004
ΔH2 [3, 5]: -14.6 ± 0 kcal/mol
−TΔS2 [3, 5]: 4.6 ± 0.2 kcal/mol
Compound: FWRPW [linear, unmodified peptide purchased from Cambridge Peptides; acyclic counterpart of 18]

ΔTm ([1]; peptide 100 μM): 8.4 °C
ΔTm ([1]; peptide 200 μM): 7.5 °C
Kd / affinity relative to unconstrained (acyclic) peptide ([3]; listed as cycFWRPW): approximately five‐fold higher
Kd ([3]; second binding event, two-site independent binding model, 25 °C, 50 mM Hepes pH7.5, 250 mM NaCl, 1 mM TCEP, 0.05% Tween 20, MWRPW n=1 (TLE1 40 μM, peptide 420 μM), FWRPW n=2 (TLE1 30/24 μM, peptide 240/180 μM), 18 n=2 (TLE1 30 μM, peptide 200/180 μM), read-out: Kd2): 522 ± 39.6 nM
Compound: N=C(N)NCCC[C@@H]1NC(=O)[C@@H](NC(=O)[C@@H](N)Cc2ccccc2)Cc2cn(c3ccccc23)CCCC[C@@]2(C(=O)N[C@@H](Cc3c[nH]c4ccccc34)C(=O)O)CCCN2C1=O [compound 18]
Kd / affinity relative to unconstrained (acyclic) peptide [3]: approximately six‐fold lower affinity than that of the acyclic peptide
